Assay results from paper PMC6001375, “CLERK is a novel receptor kinase required for sensing of root-active CLE peptides in Arabidopsis” (Development (Cambridge, England), 2018).

Legend:
[1] = test system: root meristem protophloem; test: Protophloem development / CVP2::NLS-VENUS marker in root meristem; format: in vivo, Arabidopsis thaliana; conditions: clerk mutant roots, CLE26 treatment; n=18-30 (Fig. 5D)
Text: Fig. 5. CLERK prevents premature expression of a protophloem marker. (A) Schematic presentation of the protophloem sieve element lineage in the Arabidopsis root meristem. Red asterisk, pericycle cell file; dark-blue asterisk, protophloem sieve element cell file; light-blue asterisk, incipient metaphloem cell file; arrowheads indicate the two periclinal divisions. […] Left: VENUS fluorescence, yellow. Right: overlay of VENUS fluorescence with PI cell wall staining (cyan). Asterisk indicates protophloem sieve element cell file. (D) Quantification of protophloem strand presence/absence in root meristems of a Col-0 wild type or clerk mutant upon CLE26 treatment. Statistically significant differences when compared with mock control are indicated by letters ([…], P<0.001; n=18-30). […] (G) Distance between first detectable CVP2 expression and the quiescent center (QC) in Col-0 wild type and clerk mutants, expressed as cell number. […] (H) Distance between first detectable CVP2 expression and the quiescent center (QC) in Col-0 wild type and clerk mutants, expressed as absolute distance. […] (J) Quantification of cell file number in Col-0 wild type or clerk mutants, counted at the level where protoxylem has differentiated. […] Left: VENUS fluorescence, yellow; Right: overlay of VENUS fluorescence with PI cell wall staining (cyan). […]

[2] = test system: root meristem protophloem; conditions: BAM3 necessary; ref Depuydt et al., 2013; Hazak et al., 2017; Kang and Hardtke, 2016; cited from earlier work
Text: The endogenous CLAVATA3/EMBRYO SURROUNDING REGION (CLE) peptides of plants are secreted as propeptides and processed to yield bioactive 12-14 amino acid long ligands ([Cock and McCormick, 2001]; [Ito et al., 2006]; [Kondo et al., 2006]). The Arabidopsis thaliana genome contains 32 CLE genes, which encode 27 distinct CLE peptides ([Goad et al., 2016]; [Ito et al., 2006]; [Strabala et al., 2006]). Exogenous application of chemically synthesized CLE peptides at nanomolar concentrations frequently suppresses Arabidopsis root growth in tissue culture ([Depuydt et al., 2013]; [Fiers et al., 2005]; [ ...

[3] = test system: BAM3 ectodomain; conditions: ref Hazak et al., 2017; cited from earlier work
Text: The CLE resistance of clerk mutants could be explained through indirect effects, for example on the expression of bona fide CLE receptors, as proposed for crn ([Hazak et al., 2017]). To evaluate this scenario, we focused our efforts on the only identified CLE receptor in the root protophloem so far, the CLE45 receptor BAM3 ([Hazak et al., 2017]; [Kang and Hardtke, 2016]). Introduction of a BAM3::BAM3-CITRINE transgene into clerk mutants did however not reveal any altered BAM3 expression or localization (Fig. S1D). To also test whether CLERK could serve as a co-receptor for BAM3 instead, we obt ...

[4] = test system: BAM3 ectodomain with NIK1/2/3 ectodomains; test: Analytical size-exclusion chromatography, BAM3 + NIK1/2/3 ectodomains; format: binding, Arabidopsis thaliana; conditions: Fig. S3D; 50 µM peptide; pH 5.0
Procedure: Isolation of recombinant proteins and analytical gel filtrations were carried out as described previously ([Hazak et al., 2017]) with small adjustments. The coding sequences for BAM1-ECD (amino acids 20-637), BAM3-ECD (30-651), PXY-ECD (30-647), NIK1-ECD (32-248), NIK2-ECD (33-248), NIK3-ECD (26-238), CLERK-ECD (28-236) and At5G63710-ECD (51-224) were amplified from Arabidopsis thaliana cDNA using PfuX7 polymerase. All ECD-coding sequences were then cloned into a modified pFAST-BAC1 vector (Geneva Biotech) by GIBSON cloning, resulting in the addition of the azurocidin signal peptide sequence to the 5′-end, and of a 2×-STREP-9×HIS tag to the 3′-end of the ECD sequences. These plasmids, after being confirmed by sequencing, were transformed into Escherichia coli DH10MultiBac (Geneva Biotech) followed by the extraction of the resulting bacmids. Transfection of the bacmids into Spodoptera frugiperda Sf9 cells with Profectin (AB Vector) was carried out to produce and amplify the respective virus. Recombinant secreted expression of the proteins was carried out by addition of virus to Trichoplusia ni Tnao38 cells to reach a viral multiplicity of 1 and incubation of the cells for 3 days. […] Concentrations of the pure proteins were assessed by measuring their absorbance at 280 nm (NanoDrop Lite; Thermo Scientific) and subsequent correction with their respective extinction coefficient. […]

Row | Sequence | Protophloem development in clerk mutants [1] | Effect on protophloem sieve element differentiation [2] | Binding to BAM3 ectodomain [3] | Elution of BAM3 ectodomain with NIK1/2/3 ectodomains [4]
1 | RKVPRGPDPIHN [CLE26] | maintained protophloem development | – | – | –
2 | RRVRRGSDPIHN [CLE45] | – | suppression of protophloem sieve element differentiation | high-affinity | elute as monomers
